Measured values reported in US20220117903A1, “DRUG DELIVERY SYSTEM AND METHOD” (SEOUL NATIONAL UNIVERSITY R&DB FOUNDATION, priority 2019, published 2022).

System: 4T1 tumors
Test: Therapeutic efficacy in mice bearing 4T1 tumors
Format: in vivo
Settings: doxorubicin equivalent 5 mg/kg, four treatments once every 3 days
Method: Referring to FIGS. 22 and 23, the amounts of doxorubicin in four groups are equivalent at 5 mg/kg, and all mice received a total of four treatments once every 3 days.

COc1cccc2c1C(=O)c1c(O)c3c(c(O)c1C2=O)C[C@@](O)(C(=O)CO)C[C@@H]3O[C@H]1C[C@H](N)[C@H](O)[C@H](C)O1 [free doxorubicin, doxorubicin]
effect on tumor progression / tumor growth: Neither mice treated with free doxorubicin nor with MSNs-Tz/anti-CD11b-TCO without doxorubicin had an effect on tumor progression
